Measured values taken from patent US20120101093A1, “SUBSTITUTED IMIDAZO[1,2-A]PYRIDINE DERIVATIVES, PHARMACEUTICAL COMPOSITIONS, AND METHODS OF USE AS BETA-SECRETASE INHIBITORS” (HIGH POINT PHARMACEUTICALS, LLC, priority 2009, published 2012).

Tests used:
BACE-1 enzyme = target: T1, BACE-1 enzyme (Homo sapiens, UniProt P56817); assay: BACE Fluorescence Resonance Energy Transfer (FRET) Assay; assay type: biochemical; details: pH 4-4.5, 30 min pre-incubation, about 1.5 hours reaction
T1 construct: purchased R & D Systems 931AS
Summary of the method: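 Fluorescence (ex 540, em 585 nm) after ~1.5 h room-temperature cleavage of a quenched rhodamine peptide tracks BACE-1 activity. Enzyme and compound first sit 30 min in pH 4-4.5 acetate buffer with CHAPS, Triton X-100, EDTA, 7.5% DMSO. Values given as IC50 or % inhibition.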

[1] = system: Aβ1-40 secreted from HEK293 cells stably expressing wildtype human APP695 protein (HEK-APPwt cells); assay: Aβ Cell Based Assay (Aβ1-40 secretion, ELISA); details: Homo sapiens, HEK293, 6 h, 6 hours incubation, reduction of Aβ1-40 secretion
Summary of the method: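 Cells in DMEM with 2% FBS exposed to ten compound concentrations for 6 h at 37 °C. Secreted Aβ1-40 in supernatant quantified by sandwich ELISA (82E1 capture, TMB, OD450). EC50 from percent inhibition, DAPT defining 100% inhibition, non-linear fit.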

T1 sequence (P56817 46-457 limits assumed): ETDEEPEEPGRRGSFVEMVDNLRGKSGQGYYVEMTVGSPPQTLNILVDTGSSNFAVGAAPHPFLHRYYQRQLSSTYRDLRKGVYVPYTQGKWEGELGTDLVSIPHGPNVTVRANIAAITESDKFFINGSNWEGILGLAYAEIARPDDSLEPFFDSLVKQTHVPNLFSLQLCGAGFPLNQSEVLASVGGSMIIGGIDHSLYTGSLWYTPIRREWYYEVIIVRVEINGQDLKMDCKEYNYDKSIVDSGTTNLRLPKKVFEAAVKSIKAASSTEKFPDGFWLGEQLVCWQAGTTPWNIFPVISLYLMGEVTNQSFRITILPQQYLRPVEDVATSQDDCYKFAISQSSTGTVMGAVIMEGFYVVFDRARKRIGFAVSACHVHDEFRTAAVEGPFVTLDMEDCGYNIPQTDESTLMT

Structure (SMILES)	IC50 (BACE-1 enzyme) [µM]	EC50 [1] [µM]
CC(C)(C)NCc1cccc2nc(C(=O)Nc3nc4cc(-c5cccc(C(F)(F)F)c5)ccc4[nH]3)cn12 [Example 172, 5-(tert-Butylamino-methyl)-imidazo[1,2-a]pyridine-2-carboxylic acid [5-(3-trifluoromethyl-phenyl)-1H-benzoimidazol-2-yl]-amide]	0.31	1.92
COc1cc(-c2ccc3[nH]c(NC(=O)c4cn5c(C)cccc5n4)nc3c2)cc(C(F)(F)F)c1 [Example 54, 5-Methyl-imidazo[1,2-a]pyridine-2-carboxylic acid [5-(3-methoxy-5-trifluoromethyl-phenyl)-1H-benzoimidazol-2-yl]-amide]	0.39	0.98
O=C(Nc1nc2cc(-c3cccc(C(F)(F)F)c3)ccc2[nH]1)c1cn2ccccc2n1 [Example 115, Imidazo[1,2-a]pyridine-2-carboxylic acid [5-(3-trifluoromethyl-phenyl)-1H-benzoimidazol-2-yl]-amide]	0.37	1.43
Cc1cccc2nc(C(=O)Nc3nc4cc(OCc5cccc(C(F)(F)F)c5)ccc4[nH]3)cn12 [Example 26, 5-Methyl-imidazo[1,2-a]pyridine-2-carboxylic acid [5-(3-trifluoromethyl-benzyloxy)-1H-benzoimidazol-2-yl]-amide]	0.42	1.21
O=C(Nc1nc2cc(-c3cccc(C(F)(F)F)c3)ccc2[nH]1)c1cn2c(C3=CCNCC3)cccc2n1 [Example 214, 5-(1,2,3,6-tetrahydropyridin-4-yl)-N-{5-[3-(trifluoromethyl)phenyl]-1H-benzimidazol-2-yl}imidazo[1,2-a]pyridine-2-carboxamide]	0.46	5.12
Cc1cccc2nc(C(=O)Nc3nc4cc(-c5ccc(C(F)(F)F)c(Cl)c5)ccc4[nH]3)cn12 [Example 92, 5-Methyl-imidazo[1,2-a]pyridine-2-carboxylic acid [5-(3-chloro-4-trifluoromethyl-phenyl)-1H-benzoimidazol-2-yl]-amide]	0.6	0.22
Cc1cccn2cc(C(=O)Nc3nc4cc(-c5ccc(C(C)(C)C)cc5)ccc4[nH]3)nc12 [Example 78, 8-Methyl-imidazo[1,2-a]pyridine-2-carboxylic acid [5-(4-tert-butyl-phenyl)-1H-benzoimidazol-2-yl]-amide]	0.37	0.98
CCN(C)Cc1ccc2nc(C(=O)Nc3nc4cc(-c5cccc(C(F)(F)F)c5)ccc4[nH]3)cn2c1 [Example 188, 6-[(Ethyl-methyl-amino)-methyl]-imidazo[1,2-a]pyridine-2-carboxylic acid [5-(3-trifluoromethyl-phenyl)-1H-benzoimidazol-2-yl]-amide]	0.69	3.6
Cc1cccc2nc(C(=O)Nc3nc4cc(-c5cc(Cl)ccc5Cl)ccc4[nH]3)cn12 [Example 87, 5-Methyl-imidazo[1,2-a]pyridine-2-carboxylic acid [5-(2,5-dichloro-phenyl)-1H-benzoimidazol-2-yl]-amide]	0.22	0.73
Cc1cccc2nc(C(=O)Nc3nc4cc(/C=C/c5ccc(C(F)(F)F)cc5)ccc4[nH]3)cn12 [Example 61, 5-Methyl-imidazo[1,2-a]pyridine-2-carboxylic acid {5-[(E)-2-(4-trifluoromethyl-phenyl)-vinyl]-1H-benzoimidazol-2-yl}-amide]	0.22	0.28
Cc1cccc2nc(C(=O)Nc3nc4cc(OCc5ccccc5C(F)(F)F)ccc4[nH]3)cn12 [Example 42, 5-Methyl-imidazo[1,2-a]pyridine-2-carboxylic acid [5-(2-trifluoromethyl-benzyloxy)-1H-benzoimidazol-2-yl]-amide]	0.38	3.45
O=C(Nc1nc2cc(-c3ccc(F)c(C(F)(F)F)c3)ccc2[nH]1)c1cn2c(C(F)(F)F)cccc2n1 [Example 55, 5-Trifluoromethyl-imidazo[1,2-a]pyridine-2-carboxylic acid [5-(4-fluoro-3-trifluoromethyl-phenyl)-1H-benzoimidazol-2-yl]-amide]	0.26	2.36
CNC(=O)c1cccc2nc(C(=O)Nc3nc4cc(-c5cc(F)cc(Cl)c5)ccc4[nH]3)cn12 [Example 226, Imidazo[1,2-a]pyridine-2,5-dicarboxylic acid 2-{[5-(3-chloro-5-fluoro-phenyl)-1H-benzoimidazol-2-yl]-amide} 5-methylamide]	0.29	2.14
COc1ccc(-c2ccc3[nH]c(NC(=O)c4cn5c(C)cccc5n4)nc3c2)cc1C(F)(F)F [Example 76, 5-Methyl-imidazo[1,2-a]pyridine-2-carboxylic acid [5-(4-methoxy-3-trifluoromethyl-phenyl)-1H-benzoimidazol-2-yl]-amide]	0.38	0.89
Cc1cccn2cc(C(=O)Nc3nc4cc(-c5cccc(Cl)c5)ccc4[nH]3)nc12 [Example 51, 8-Methyl-imidazo[1,2-a]pyridine-2-carboxylic acid [5-(3-chloro-phenyl)-1H-benzoimidazol-2-yl]-amide]	0.96	1.84
Cc1cccc2nc(C(=O)Nc3nc4cc(-c5cccc(OC(F)(F)F)c5)ccc4[nH]3)cn12 [Example 46, 5-Methyl-imidazo[1,2-a]pyridine-2-carboxylic acid [5-(3-trifluoromethoxy-phenyl)-1H-benzoimidazol-2-yl]-amide]	0.26	0.63
Cc1cccc2nc(C(=O)Nc3nc4cc(-c5cc(C(F)(F)F)ccc5F)ccc4[nH]3)cn12 [Example 70, 5-Methyl-imidazo[1,2-a]pyridine-2-carboxylic acid [5-(2-fluoro-5-trifluoromethyl-phenyl)-1H-benzoimidazol-2-yl]-amide]	0.26	0.21
O=C(Nc1nc2cc(-c3cccc(C(F)(F)F)c3)ccc2[nH]1)c1cn2cc(CN3CCOCC3)ccc2n1 [Example 182, 6-Morpholin-4-ylmethyl-imidazo[1,2-a]pyridine-2-carboxylic acid [5-(3-trifluoromethyl-phenyl)-1H-benzoimidazol-2-yl]-amide]	0.46	0.54
O=C(Nc1nc2cc(OCc3ccc(C(F)(F)F)cc3)ccc2[nH]1)c1cn2c(C(F)(F)F)cccc2n1 [Example 49, 5-Trifluoromethyl-imidazo[1,2-a]pyridine-2-carboxylic acid [5-(4-trifluoromethyl-benzyloxy)-1H-benzoimidazol-2-yl]-amide]	0.17	8.76
CCOC(=O)c1cccc(-c2ccc3[nH]c(NC(=O)c4cn5c(C)cccc5n4)nc3c2)c1 [Example 72, 3-{2-[(5-Methyl-imidazo[1,2-a]pyridine-2-carbonyl)-amino]-1H-benzoimidazol-5-yl}-benzoic acid ethyl ester]	0.62	1.51
Cc1cccn2cc(C(=O)Nc3nc4cc(-c5ccc(Cl)cc5)ccc4[nH]3)nc12 [Example 69, 8-Methyl-imidazo[1,2-a]pyridine-2-carboxylic acid [5-(4-chloro-phenyl)-1H-benzoimidazol-2-yl]-amide]	0.46	6.97
